# “And” between values parts separate entries of the source, which are not always exact repeats. Equal values may be shown once. Read-outs that look alike come from different tables or passages of the source.
# How the values were obtained:
# SARS2 = type: cell-based, SARS-CoV-2; conditions: for Percentage Infection Relative to Appropriate DMSO Control: avg background subtraction
smiles,measurement,setting,value
Cc1ccc(CN(CCN(C)C)Cc2cc(C#CCO)cs2)s1 [SILCS1],"Relative cell count to DMSO controls, Average 1 μM","cells (nuclei count); 1 μM, toxicity data, 100=DMSO control",98.82
same,"Relative cell count to DMSO controls, Average 5 μM","cells (nuclei count); 5 μM, toxicity data, 100=DMSO control",99.54
same,"Relative cell count to DMSO controls, Average 10 μM","cells (nuclei count); 10 μM, toxicity data, 100=DMSO control",108.52
same,"Relative cell count to DMSO controls, Average 25 μM","cells (nuclei count); 25 μM, toxicity data, 100=DMSO control",116.28
same,"Relative cell count to DMSO controls, Average 50 μM","cells (nuclei count); 50 μM, toxicity data, 100=DMSO control",84.14
same,"Toxicity Data, Average, Mean","cells (nuclei count); Average of Exp 1-3, n 9, 1 uM",98.82%
same,"Toxicity Data, Average, Mean","cells (nuclei count); Average of Exp 1-3, n 9, 5 uM",99.54%
same,"Toxicity Data, Average, Mean","cells (nuclei count); Average of Exp 1-3, n 9, 10 uM",108.52%
same,"Toxicity Data, Average, Mean","cells (nuclei count); Average of Exp 1-3, n 9, 25 uM",116.28%
same,"Toxicity Data, Average, Mean","cells (nuclei count); Average of Exp 1-3, n 9, 50 uM",84.14%
same,"Toxicity Data, nuclei count relative to DMSO controls","cells (nuclei count); Exp 1 (SMW454), 1 uM",105.2% and 108.8% and 106.3%
same,"Toxicity Data, nuclei count relative to DMSO controls","cells (nuclei count); Exp 1 (SMW454), 5 uM",102.9% and 104.5% and 102.2%
same,"Toxicity Data, nuclei count relative to DMSO controls","cells (nuclei count); Exp 1 (SMW454), 10 uM",107.4% and 106.9% and 105.6%
same,"Toxicity Data, nuclei count relative to DMSO controls","cells (nuclei count); Exp 1 (SMW454), 25 uM",94.7% and 94.9% and 95.9%
same,"Toxicity Data, nuclei count relative to DMSO controls","cells (nuclei count); Exp 1 (SMW454), 50 uM",83.8% and 87.1% and 84.9%
same,"Toxicity Data, nuclei count relative to DMSO controls","cells (nuclei count); Exp 2 (SMW466), 1 uM",93.5% and 94.5% and 96.6%
same,"Toxicity Data, nuclei count relative to DMSO controls","cells (nuclei count); Exp 2 (SMW466), 5 uM",107.1% and 94.1% and 106.7%
same,"Toxicity Data, nuclei count relative to DMSO controls","cells (nuclei count); Exp 2 (SMW466), 10 uM",107.3% and 102.2% and 104.0%
same,"Toxicity Data, nuclei count relative to DMSO controls","cells (nuclei count); Exp 2 (SMW466), 25 uM",130.6% and 124.7% and 133.0%
same,"Toxicity Data, nuclei count relative to DMSO controls","cells (nuclei count); Exp 2 (SMW466), 50 uM",88.5% and 77.1% and 78.5%
same,"Toxicity Data, nuclei count relative to DMSO controls","cells (nuclei count); Exp 3 (SMW480), 1 uM",89.7% and 102.3% and 92.4%
same,"Toxicity Data, nuclei count relative to DMSO controls","cells (nuclei count); Exp 3 (SMW480), 5 uM",88.1% and 95.7% and 94.5%
same,"Toxicity Data, nuclei count relative to DMSO controls","cells (nuclei count); Exp 3 (SMW480), 10 uM",124.6% and 98.4% and 120.2%
same,"Toxicity Data, nuclei count relative to DMSO controls","cells (nuclei count); Exp 3 (SMW480), 25 uM",120.8% and 130.3% and 121.5%
same,"Toxicity Data, nuclei count relative to DMSO controls","cells (nuclei count); Exp 3 (SMW480), 50 uM",72.1% and 98.8% and 86.4%
same,"Relative cell count to DMSO controls, Average (for correlation analysis)",cells (nuclei count); average value over the 5 tested concentrations (1 to 50 uM),101.46
same,Percentage Infection Relative to Appropriate DMSO Control,"SARS2; 1 uM, Exp 1 (SMW454), single wells",99.35% and 98.10% and 99.72%
same,Percentage Infection Relative to Appropriate DMSO Control,"SARS2; 5 uM, Exp 1 (SMW454), single wells",112.30% and 117.54% and 117.35%
same,Percentage Infection Relative to Appropriate DMSO Control,"SARS2; 10 uM, Exp 1 (SMW454), single wells",107.68% and 118.84% and 98.07%
same,Percentage Infection Relative to Appropriate DMSO Control,"SARS2; 25 uM, Exp 1 (SMW454), single wells",103.38% and 104.01% and 105.61%
same,Percentage Infection Relative to Appropriate DMSO Control,"SARS2; 50 uM, Exp 1 (SMW454), single wells",103.48% and 93.04% and 95.93%
same,"Infection Data, Average, Mean","SARS2; Average of Exp 1-3, n 9, 1 uM",122.42%
same,"Infection Data, Average, Mean","SARS2; Average of Exp 1-3, n 9, 5 uM",119.79%
same,"Infection Data, Average, Mean","SARS2; Average of Exp 1-3, n 9, 10 uM",100.52%
same,"Infection Data, Average, Mean","SARS2; Average of Exp 1-3, n 9, 25 uM",61.83%
same,"Infection Data, Average, Mean","SARS2; Average of Exp 1-3, n 9, 50 uM",43.32%
same,Percentage Infection Relative to Appropriate DMSO Control,"SARS2; Exp 2 (SMW466), 1 uM",148.68% and 144.39% and 143.85%
same,Percentage Infection Relative to Appropriate DMSO Control,"SARS2; Exp 2 (SMW466), 5 uM",114.43% and 126.13% and 128.85%
same,Percentage Infection Relative to Appropriate DMSO Control,"SARS2; Exp 2 (SMW466), 10 uM",102.74% and 102.52% and 110.68%
same,Percentage Infection Relative to Appropriate DMSO Control,"SARS2; Exp 2 (SMW466), 25 uM",28.51% and 36.47% and 30.25%
same,Percentage Infection Relative to Appropriate DMSO Control,"SARS2; Exp 3 (SMW480), 1 uM",128.15% and 110.09% and 129.44%
same,Percentage Infection Relative to Appropriate DMSO Control,"SARS2; Exp 3 (SMW480), 5 uM",127.64% and 114.03% and 119.89%
same,Percentage Infection Relative to Appropriate DMSO Control,"SARS2; Exp 3 (SMW480), 10 uM",73.36% and 110.69% and 80.10%
same,Percentage Infection Relative to Appropriate DMSO Control,"SARS2; Exp 3 (SMW480), 25 uM",55.94% and 38.83% and 53.44%
same,Percentage Infection Relative to Appropriate DMSO Control,"SARS2; Exp 3 (SMW480), 50 uM",27.26% and 20.30% and 23.61%
same,Percentage Inhibition Average 1 μM,"SARS2; SARS2, 1 μM",−22.42%
same,Screening data (Relative infection to DMSO controls) Average 1 μM,"SARS2; SARS2, 1 μM, 100=DMSO control",122.42
same,Percentage Inhibition Average 5 μM,"SARS2; SARS2, 5 μM",−19.79%
same,Screening data (Relative infection to DMSO controls) Average 5 μM,"SARS2; SARS2, 5 μM, 100=DMSO control",119.79
same,Percentage Inhibition Average 10 μM,"SARS2; SARS2, 10 μM",−0.52%
same,Screening data (Relative infection to DMSO controls) Average 10 μM,"SARS2; SARS2, 10 μM, 100=DMSO control",100.52
same,Percentage Inhibition Average 25 μM,"SARS2; SARS2, 25 μM",38.17%
same,Screening data (Relative infection to DMSO controls) Average 25 μM,"SARS2; SARS2, 25 μM, 100=DMSO control",61.83
same,Percentage Inhibition Average 50 μM,"SARS2; SARS2, 50 μM",56.68%
same,Screening data (Relative infection to DMSO controls) Average 50 μM,"SARS2; SARS2, 50 μM, 100=DMSO control",43.32
same,Average (relative infection to DMSO over the 5 tested concentrations),"SARS2; SARS2, average over 1 to 50 uM, 100=DMSO control",89.58
